Data on 54 compounds can be found in PubChem BioAssay AID179 (DTP/NCI, 2004).

The structures appear in SMILES notation. Where “and” joins values, the source holds several entries; their conditions need not be identical. Identical values can stand only once. Calls of active or inactive are those of the source.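 How the source made its calls: active means compounds giving half or more protection of infected cells from virus-caused growth loss, again on retest; inactive means the rest.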

For the assay, the system named is CEM cells HIV-1 protection, formazan growth assay. The assay is described as follows: NCI AIDS Antiviral Assay. The following applies: for IC50: measured here: growth of uninfected CEM cells. The method in brief:
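Five concentrations of each compound were applied to infected and uninfected human CEM cells. Protection from HIV-1 was judged from growth measured with a soluble formazan assay.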

Turning to `CCc1c(Cc2ccccc2)n(COCCC[Se]c2ccccc2)c(=O)[nH]c1=O`, the EC50 was 2.82 µM and the IC50 stood at 18.2 µM.

For the compound `O=c1cc(CBr)c2ccc(O)cc2o1`, the EC50 was greater than 200 µM and the IC50 worked out at 102 µM. For `Cc1ccc2c(=O)c3c(O)c4c(cc3n(C)c2c1)OC(C)(C)C=C4` the same measures were greater than 200 µM and greater than 200 µM. For `CCn1c2ccccc2c2cc(NC(=O)c3c(NCCNCCO)nc(=O)[nH]c3C)ccc21`, the EC50 is greater than 200 µM and the IC50 was greater than 200 µM. With `C=Cc1cc[n+](CCCCCC[n+]2ccc(C=C)cc2)cc1`, the EC50 was greater than 200 µM and the IC50 is greater than 200 µM. Consider `Nc1nc(-c2ccccc2)cc(-c2ccc(F)cc2)c1-c1ccc(Cl)cc1`, for which the EC50 was greater than 200 µM and the IC50 amounted to 132 µM. Take `O=c1cc(-c2cccs2)ss1`: the EC50 is 77.6 µM and the IC50 was 110 µM. For `O=[N+]([O-])c1ccc(Nc2ccc(Cl)cc2)c2nonc12` the same measures were greater than 43.7 µM and 15.1 µM. As for `CC1(C23CC4CC(CC(C4)C2)C3)n2c(=O)n(-c3ccccc3)c(=O)n2C1(C)C12CC3CC(CC(C3)C1)C2` (stereo not given), the EC50 is greater than 50.1 µM and the concentration for half-maximal inhibition (IC50) was greater than 50.1 µM. For the compound `O=C1c2ccccc2Sc2ccccc2N1CCCCN1CCN(c2ccc(F)cc2)CC1`, the EC50 was greater than 200 µM and the IC50 is greater than 200 µM. Turning to `COc1cc([N+](=O)[O-])ccc1C(=O)Nc1c2ccccc2nc2ccccc12`, the EC50 was greater than 200 µM and the half-inhibitory concentration (IC50) was 0.479 µM. `CCc1cccc(CC)c1NC(=S)N/C=C(\C#N)C(=O)c1ccc2ccccc2c1`: the outcome was inactive. On to `S=c1[nH][nH]c(=S)c2[nH]cnc12`, for which the EC50 was greater than 141 µM and the IC50 is greater than 141 µM.

`Br/C=C(\Br)C[N+]12CN3CN(CN(C3)C1)C2`: the EC50 is greater than 200 µM and the IC50 turned out to be 110 µM.

For `O=C(Cc1nc2ccccc2o1)C(=O)Nc1ccccc1C(F)(F)F`, the outcome was inactive. Take `c1cc2cc3c(cc2o1)OC[C@H]1c2cc4c(cc2O[C@@H]31)OCO4`: the EC50 is greater than 43.7 µM and the IC50 worked out at 10.5 µM. `CC1(O)c2ccccc2CCc2ccccc21`: the EC50 was greater than 32.4 µM and the IC50 is greater than 32.4 µM. In the case of `C[N+](C)(C)CCOP(=O)(O)OP(=O)([O-])OCC1CCC(n2ccc(N)nc2=O)O1` (stereo not given), the EC50 is 0.575 µM and 0.178 µM; the IC50 was greater than 200 µM.

As to `CC1(C)N=C(C(N)=O)c2[nH]cnc2N1`, the EC50 was greater than 200 µM and the IC50 is greater than 200 µM. For `O=C1CC2C(CC3OC(=O)C4C3C23COC4(O)C(O)C3)c2occc21` (stereo not given), the EC50 is greater than 200 µM and the IC50 turned out to be 3.24 µM. For the compound `COc1ccc(Br)c(CCCCC(=O)O)c1`, the outcome was inactive. `CCn1c2cc(C)c(C)cc2nc2cc3c(cc21)c(Cl)c(=O)c1ccccc13` yielded an EC50 greater than 200 µM and an IC50 greater than 200 µM. With `N#C/C(N)=C(\C#N)NC=NCCO`, the EC50 was greater than 200 µM and the IC50 was greater than 200 µM.

For `Cc1cc2nc3[nH]c4ccccc4c3nc2cc1C`, the EC50 was greater than 20.9 µM and the IC50 is greater than 20.9 µM. Take `CCCCCCCCCCCCCCCCCCOCC(CO[P+](=O)O)OCCCCCCCCCCCCCCCCCC` (stereo not given): the EC50 was greater than 50.1 µM and the IC50 is greater than 50.1 µM. For the compound `O=C(OC[C@]12OC1C=C[C@H](OC(=O)c1ccccc1)C2O)c1ccccc1` (stereo not given in full), the EC50 is greater than 24.5 µM and the IC50 turned out to be 23.4 µM.

For `NC(CCCCCCCCCCP(=O)(O)O)C(=O)O` (stereo not given), the EC50 was greater than 200 µM and the IC50 was greater than 200 µM.

As for `Cc1cc(Br)ccc1NC1=CC(=O)C(=O)c2ccccc21`, the EC50 was greater than 2.19 µM and the IC50 was greater than 2.19 µM. As to `CC(=O)NC1C(OCc2ccccc2)OC(CO)C(O)C1OC(C)C(=O)N[C@@H](C)C(=O)N[C@H](CCC(=O)OCCNc1c2ccccc2nc2cccc([N+](=O)[O-])c12)C(N)=O` (stereo not given in full), the EC50 is greater than 0.02 µM and the IC50 stood at 0.000339 µM. As for `Cc1[nH]c(NC(=O)C(=O)O)c(C#N)c1C`, the EC50 is greater than 200 µM and the IC50 is greater than 200 µM. For the compound `CCOC(=O)C(=[N+]=[N-])C(=O)CN1C(=O)c2ccccc2C1=O`, the EC50 was greater than 437 µM and the IC50 is greater than 437 µM. On to `O=C1NC(=O)c2ccc3c4c(ccc1c24)C(=O)NC3=O`, for which the EC50 is greater than 200 µM and the IC50 is greater than 200 µM. With `COc1c(Cl)cc(C(=CCCCC(=O)N(C)OC)c2cc(Cl)c(OC)c(C(=O)N(C)OC)c2)cc1C(=O)N(C)OC`, the EC50 is greater than 200 µM and the IC50 was 30.9 µM. In the same order, the values of `COc1ccccc1N=C1SCC(=O)N1Cc1ccco1` are greater than 135 µM and 89.1 µM. For the compound `S=c1sc2c(s1)SCc1cccc(n1)CSc1sc(=S)sc1SCc1cccc(n1)CS2`, the EC50 was greater than 200 µM and the IC50 is greater than 200 µM.

`Cc1ccc(N2C(=O)N(c3ccc(C)cc3)C3(SC=NN3C)C2=O)cc1` (stereo not given): the outcome was inactive. In the case of `CC(CCC(=O)O)[C@H]1CCC2[C@H]3C(CC(=O)[C@@]21C)[C@@]1(C)CCC(O)C[C@H]1C[C@@H]3O` (stereo not given in full), the EC50 is greater than 200 µM and the IC50 was greater than 200 µM.

On to `COC(=O)C1=CCC[C@H]2C1(C)CCC(C)C21CC(c2ccoc2)OC1=O` (stereo not given in full), for which the EC50 is greater than 100 µM and the IC50 amounted to 51.3 µM. In the case of `Cc1cc2c(cc1Cl)SC(NN(C)C)=NS2(=O)=O`, the EC50 was greater than 200 µM and the IC50 turned out to be 117 µM. Regarding `N#Cc1c(-c2ccc(Cl)cc2)c(C#N)c(=O)n(NS(=O)(=O)c2ccccc2)c1O`, the EC50 was greater than 200 µM and the IC50 was greater than 200 µM. Take `CCc1ccc(Cc2ccc(CC)c(NC(=O)C(=O)C3NC(=S)NC3=O)c2CC)c(CC)c1NC(=O)C(=O)C1NC(=S)NC1=O` (stereo not given): the EC50 is greater than 15.1 µM and the IC50 was greater than 15.1 µM. Take `Clc1ccc(C(=C=C(c2ccccc2)c2ccccc2)c2ccc(Cl)cc2)cc1`: the EC50 is greater than 22.9 µM and the IC50 was greater than 22.9 µM.

For `C=C=CC(C)(O)c1ccc(-c2ccccc2)cc1` (stereo not given), the EC50 was greater than 191 µM and the IC50 was determined as 45.7 µM. Consider `COP(C)(=O)/C(Cc1ccccc1)=N\O` (stereo not given), for which the EC50 is greater than 200 µM and the IC50 was greater than 200 µM.

Regarding `C/C(O)=C(\C=N\C(=S)Nc1ccccc1)C(=O)Nc1ccc(Cl)cc1`, the result was inactive. As to `CC1SC2(CC3CCC2(C)C3(C)C)OC1=O` (stereo not given), the EC50 was greater than 20.9 µM and the IC50 is greater than 20.9 µM. Consider `COc1ccc(-n2c(=O)[nH]n(C(C)=O)c2=O)cc1`, for which the EC50 is greater than 200 µM and the IC50 is greater than 200 µM. Consider `O=C1C(=O)N(c2nccs2)C(=O)C(=O)C1c1nc2ccccc2s1`, for which the EC50 was greater than 100 µM and the IC50 was greater than 100 µM. Consider `c1cc(N(CCn2cccn2)CCn2cccn2)cc(N(CCn2cccn2)CCn2cccn2)c1`, for which the result was inactive.

Regarding `Nc1ncnc2c1ncn2-c1ccc([N+](=O)[O-])cn1`, the outcome was inactive.

As for `CCOC(=O)/C(=C\c1ccc(F)cc1)C(C)=O`, the EC50 was greater than 398 µM and the IC50 amounted to 79.4 µM. Turning to `CCC1C(=O)N(C)c2ccccc21` (stereo not given), the EC50 was greater than 200 µM; the IC50 was 117 µM and 33.1 µM. Take `O/N=C/c1ncccc1C1OCCO1`: the EC50 is greater than 257 µM and the IC50 came out at 141 µM. With `COc1cc2cccc(OC)c(=O)c2c(O)c1OC`, the result was inactive.
